Results published in patent publication US9682955B2, “Quinazoline derivatives useful as CB-1 inverse agonists” (Janssen Pharmaceutica NV, priority 2014, dated 2017).
Where “and” joins values, the source holds several entries; their conditions need not be identical. Equal entries are not always repeated. Where two headings read alike, the source gives them in different places.

How the values were obtained:
[1] = target: Human CB1R (Cannabanoid receptor 1) (Homo sapiens (Human), UniProt P21554); test: CB-1 in vitro cAMP assay (HTRF); type: cell-based; conditions: mean where tested more than once
Sequence of Human CB1R (Cannabanoid receptor 1) (P21554 whole entry): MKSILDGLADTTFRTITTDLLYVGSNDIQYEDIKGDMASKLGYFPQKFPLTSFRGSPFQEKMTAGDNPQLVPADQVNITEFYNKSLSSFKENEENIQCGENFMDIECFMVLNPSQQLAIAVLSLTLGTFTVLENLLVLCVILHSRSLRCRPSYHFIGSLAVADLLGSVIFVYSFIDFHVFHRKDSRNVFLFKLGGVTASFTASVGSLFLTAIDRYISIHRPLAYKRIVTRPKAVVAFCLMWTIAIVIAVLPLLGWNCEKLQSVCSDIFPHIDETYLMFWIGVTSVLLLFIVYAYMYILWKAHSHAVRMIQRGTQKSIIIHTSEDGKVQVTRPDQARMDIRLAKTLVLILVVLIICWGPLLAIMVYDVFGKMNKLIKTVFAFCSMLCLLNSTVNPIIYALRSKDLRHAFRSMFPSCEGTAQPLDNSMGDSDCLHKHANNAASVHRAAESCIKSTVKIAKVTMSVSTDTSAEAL
Method in brief: (§1)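 HEK-293 cells stably transfected with the human receptor, plated overnight at 4E5 cells/mL. Compounds given as 1/3 serial dilutions from 10 mM DMSO stocks. Stimulation in HBSS/5 mM HEPES/0.1% BSA with 0.5 mM IBMX and forskolin (1.5 μM in buffer); cAMP measured by competitive HTRF immunoassay (d2-cAMP, cryptate anti-cAMP) against a cAMP standard curve.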

hCB1-CHO-K1 membranes = hCB1-CHO-K1 membranes (Homo sapiens (Human), UniProt P21554); test: CB-1 membrane binding assay ([3H] CP 55,940 displacement); conditions: [3H] CP 55,940 0.4 nM
Sequence of hCB1-CHO-K1 membranes (P21554 whole entry): as above
Procedure: Into Greiner V bottom polypropylene plates, hCB1-CHO-K1 membranes (2 μg/well final concentration) in assay buffer (50 mM Tris-HCl pH 7.4, 5 mM MgCl2 and 0.5 mg/ml (0.05%) Ultra fatty acid free BSA) were dispensed. Membranes were purchased from Perkin Elmer. Test compounds were then added to each well and then [^3H] CP 55, 940 (0.4 nM final well concentration) in assay buffer (50 mM Tris-HCl pH 7.4, 5 mM MgCl2 and 0.5 mg/ml (0.05%) Ultra fatty acid free BSA) was added. Samples were mixed and incubated for 90 min at 30° C. in the Greiner V Bottom Polypropylene plate. After incubation, assay reagents were transferred to a blocked 384 well polypropylene filter plates. The binding reaction was stopped by filtration and washed seven times with ice cold rinse buffer. Filter plates were then dried overnight at room temperature. The next day, plate bottoms were sealed with plate tape and 15 μl MicroScint 20 was added to each well. Plates were incubated for 2h and radioactivity was measured by Topcount.
Total Binding levels were achieved by combining membrane, DMSO, and [^3H] CP-55,940 (also known as 5-(1,1-dimethylheptyl)-2-[(1R,2R,5R)-5-hydroxy-2-(3-hydroxypropyl)cyclohexyl]-phenol). […]
IC50 data was calculated using raw CPM values. […] IC50 values were fit appropriately and calculated using the following equation: […]

[2] = target: Human CB2R (Cannabanoid receptor 2) (Homo sapiens (Human), UniProt P34972); test: CB-2 in vitro cAMP assay (HTRF); type: cell-based; conditions: mean where tested more than once
Sequence of Human CB2R (Cannabanoid receptor 2) (P34972 whole entry): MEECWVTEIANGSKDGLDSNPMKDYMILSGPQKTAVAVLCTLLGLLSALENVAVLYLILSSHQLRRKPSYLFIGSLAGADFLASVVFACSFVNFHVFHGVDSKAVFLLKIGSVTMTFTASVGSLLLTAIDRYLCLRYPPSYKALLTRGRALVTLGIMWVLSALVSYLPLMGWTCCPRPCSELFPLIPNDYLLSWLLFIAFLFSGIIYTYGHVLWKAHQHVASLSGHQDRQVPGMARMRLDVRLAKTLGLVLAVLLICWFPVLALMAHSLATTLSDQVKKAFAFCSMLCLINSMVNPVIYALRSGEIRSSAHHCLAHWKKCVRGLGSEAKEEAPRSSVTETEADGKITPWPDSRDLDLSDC
Method in brief: as §1

[3] = Mouse Fast PK/BBB (plasma and brain concentration); type: in vivo, Male C57bl/6j mice; conditions: for concentration at 1 h / concentration at 4 h: male, C57bl/6j
Procedure: Male Sprague Dawley rats were ordered from Charles River (225-250 gm upon arrival). They were fed standard chow diet (Purina 5001) and housed 2 per cage. Male C57bl/6j mice were ordered from Charles River at 22-25 g and housed 3 per cage. They were fed standard chow (Purina 5001). All animals were housed in a temperature-controlled room with 12-hour light/dark cycle. Animals were given food and water ad libitum, except as noted.
[…] Test compounds were administered by oral gavage (5 ml kg^−1).
Male C57bl/6j mice were dosed with test compounds at 30 mg/kg. Plasma was collected via retro-orbital bleeding at 1 hr and 4 hrs after dosing. Whole brain without cerebellum was collected at 4 hrs after dosing. Wet brain weight was recorded before freezing. Brains were homogenized in saline and sent for analysis for determination of concentration of test compound.
Tables 6A and 6B below present results for representative compounds of the present invention, tested according to the procedure as described above. Each compound was tested in three animals (N=3) and administered PO at 20 mg/kg or 30 mg/kg.

[4] = plasma, PO 30 mg/kg, 1 hr, N=3, read-out: PLASMA Mean Conc. ± Std. Dev
[5] = PO 20 mg/kg, 10% PEG400 and 10% Solutol in water, 1 hr, individual animals
[6] = PO 20 mg/kg, 10% PEG400 and 10% Solutol in water, 4 hr, individual animals
[7] = PO 30 mg/kg, 5% NMP and 20% HPβCD ~pH8 in water, 1 hr, individual animals
[8] = PO 30 mg/kg, 5% NMP and 20% HPβCD ~pH8 in water, 4 hr, individual animals

Row | SMILES | EC50 [1] [nM] | EC50 [2] [nM] | other results
1 | OCC(CO)(CO)COc1nc(NCc2cccc(C(F)(F)F)c2)c2cc(C(c3ccc(Cl)cc3)c3ccc(Cl)cc3)ccc2n1 [Compound #54, 2-(((6-(bis(4-chlorophenyl)methyl)-4-((3-(trifluoromethyl)benzyl)amino)quinazolin-2-yl)oxy)methyl)-2-(hydroxymethyl)propane-1,3-diol] | 21 | 4460 | BRAIN Mean Conc. ± Std. Dev ([3]; PO 30 mg/kg, 1 hr, N=3): BLOQ ± NA; BRAIN Mean Conc. ± Std. Dev ([3]; PO 30 mg/kg, 4 hr, N=3): BLOQ ± NA; concentration at 1 h [3, 4]: 946 ± 99.4 ng/mL; concentration at 4 h ([3]; plasma, PO 30 mg/kg, 4 hr, N=3, read-out: PLASMA Mean Conc. ± Std. Dev): 1300 ± 155 ng/mL
2 | N=C(N)c1ccc(S(=O)(=O)N2CCC(Nc3ncnc4ccc(C(c5ccc(Cl)cc5)c5ccc(Cl)cc5)cc34)CC2)cc1 [Compound #47, 4-((4-((6-(bis(4-chlorophenyl)methyl)quinazolin-4-yl)amino)piperidin-1-yl)sulfonyl)benzimidamide] | 10 | 3920 | BRAIN Mean Conc. ± Std. Dev ([3]; PO 30 mg/kg, 1 hr, N=3): BLOQ ± NA; BRAIN Mean Conc. ± Std. Dev ([3]; PO 30 mg/kg, 4 hr, N=3): BLOQ ± NA; PLASMA Mean Conc. ± Std. Dev ([3]; PO 30 mg/kg, 4 hr, N=3): BLOQ ± NA; concentration at 1 h [3, 4]: 7.83 ± 1.08 ng/mL
3 | OCCCCOc1nc(NCc2ccc(C(F)(F)F)cc2)c2cc(C(c3ccc(Cl)cc3)c3ccc(Cl)cc3)ccc2n1 [Compound #71, 4-((6-(bis(4-chlorophenyl)methyl)-4-((4-(trifluoromethyl)benzyl)amino)quinazolin-2-yl)oxy)butan-1-ol] | 19 | > 10000 | –
4 | O=S(=O)(N1CCC(Nc2nc(Cl)nc3ccc(C(c4ccc(Cl)cc4)c4ccc(Cl)cc4)cc23)CC1)C(F)(F)F [Compound 200] | 9 | 6500 | –
5 | O=C(O)c1cccc(CNc2ncnc3ccc(C(c4ccc(Cl)cc4)c4ccc(Cl)cc4)cc23)c1 [Compound #59, 3-(((6-(bis(4-chlorophenyl)methyl)quinazolin-4-yl)amino)methyl)benzoic acid] | 4430 | > 10000 | –
6 | Fc1ccc(C(c2ccc(F)cc2)c2ccc3ncnc(NC4CCN(c5ccccc5)CC4)c3c2)cc1 [Compound #67, 6-(bis(4-fluorophenyl)methyl)-N-(1-phenylpiperidin-4-yl)quinazolin-4-amine] | 1 | 1150 | –
7 | O=C(O)c1cccc(CCNc2ncnc3ccc(C(c4ccc(Cl)cc4)c4ccc(Cl)cc4)cc23)c1 [Compound #2, 3-(2-((6-(bis(4-chlorophenyl)methyl)quinazolin-4-yl)amino)ethyl)benzoic acid] | 325 | 1060 | –
8 | O=C(COc1nc(NCc2cccc(C(F)(F)F)c2)c2cc(C(c3ccc(Cl)cc3)c3ccc(Cl)cc3)ccc2n1)NCCO [Compound #40, 2-((6-(bis(4-chlorophenyl)methyl)-4-((3-(trifluoromethyl)benzyl)amino)quinazolin-2-yl)oxy)-N-(2-hydroxyethyl)acetamide] | 10 | 1670 | –

The next lines start with results.

Row | EC50 [1] [nM] | EC50 [2] [nM] | SMILES | other results
9 | 24 | 2450 | CS(=O)(=O)N1CCC(Nc2ncnc3ccc(C(c4ccc(Cl)cc4)c4ccc(Cl)cc4)cc23)CC1 [Compound #140, 6-(bis(4-chlorophenyl)methyl)-N-(1-(methylsulfonyl)piperidin-4-yl) quinazolin-4-amine] | IC50 (hCB1-CHO-K1 membranes): 74 nM
10 | 14 | 323 | O=C(O)c1ccc(S(=O)(=O)N2CCC(Nc3ncnc4ccc(C(c5ccc(Cl)cc5)c5ccc(Cl)cc5)cc34)CC2)cc1 [Compound #93, 4-((4-((6-(bis(4-chlorophenyl)methyl)quinazolin-4-yl)amino)piperidin-1-yl)sulfonyl)benzoic acid] | BRAIN Range of Conc. [3, 5]: ND, ND, ND; PLASMA Range of Conc. [3, 5]: ND, BLOQ, ND; BRAIN Range of Conc. [3, 6]: ND, ND, ND; PLASMA Range of Conc. [3, 6]: 17.155 ng/mL and 6.427 ng/mL; BRAIN Range of Conc. [3, 7]: BLOQ, BLOQ,; PLASMA Range of Conc. [3, 7]: 280 ng/mL and 9.10 ng/mL and 9.00 ng/mL; BRAIN Range of Conc. [3, 8]: BLOQ, BLOQ,; PLASMA Range of Conc. [3, 8]: BLOQ, BLOQ,; concentration at 4 h ([3]; plasma, PO 20 mg/kg, 10% PEG400 and 10% Solutol in water, 4 hr, individual animals, read-out: PLASMA Range of Conc.): 16.1 ng/mL
11 | 32 | 5010 | CCS(=O)(=O)N1CCC(Nc2ncnc3ccc(C(c4ccc(Cl)cc4)c4ccc(Cl)cc4)cc23)CC1 [compound 141, 6-(bis(4-chlorophenyl)methyl)-N-(1-(ethylsulfonyl)piperidin-4-yl) quinazolin-4-amine] | –
12 | 3 | 2140 | O=S(=O)(c1ccc(F)cc1)N1CCC(Nc2ncnc3ccc(C(c4ccc(Cl)cc4)c4ccc(Cl)cc4)cc23)CC1 [compound 121, 6-(bis(4-chlorophenyl)methyl)-N-(1-(4-fluorophenylsulfonyl)piperidin-4-yl)quinazolin-4-amine] | –
13 | 8 | 2500 | CC(Nc1ncnc2ccc(C(c3ccc(Cl)cc3)c3ccc(Cl)cc3)cc12)c1ccc(C(F)(F)F)cc1 (stereo not drawn) [compound 116, 6-(bis(4-chlorophenyl)methyl)-N-(1-(4-(trifluoromethyl)phenyl)ethyl)quinazolin-4-amine] | –
14 | 11 | > 10000 | FC(F)(F)c1ccc(CNc2ncnc3ccc(C(c4ccc(Cl)cc4)c4ccc(Cl)cc4)cc23)cc1 [compound 138, 6-(bis(4-chlorophenyl)methyl)-N-(4-(trifluoromethyl)benzyl)quinazolin-4-amine] | concentration at 1 h ([3]; brain, PO 20 mg/kg, 1 hr, N=3, read-out: BRAIN Mean Conc. ± Std. Dev): 61.7 ± 22.6 ng/mL; concentration at 4 h ([3]; brain, PO 20 mg/kg, 4 hr, N=3, read-out: BRAIN Mean Conc. ± Std. Dev): 192 ± 14 ng/mL; concentration at 1 h ([3]; plasma, PO 20 mg/kg, 1 hr, N=3, read-out: PLASMA Mean Conc. ± Std. Dev): 3300 ± 537 ng/mL; concentration at 4 h ([3]; plasma, PO 20 mg/kg, 4 hr, N=3, read-out: PLASMA Mean Conc. ± Std. Dev): 3790 ± 743 ng/mL
15 | 120 | > 10000 | Oc1ccc(CN2CCC(Nc3ncnc4ccc(C(c5ccc(Cl)cc5)c5ccc(Cl)cc5)cc34)CC2)cc1 [compound 27, 4-((4-(6-(bis(4-chlorophenyl)methyl)quinazolin-4-ylamino)piperidin-1-yl)methyl)phenol] | –
16 | 14 | 4430 | COC(=O)c1ccc(C(=O)N2CCC(Nc3ncnc4ccc(C(c5ccc(Cl)cc5)c5ccc(Cl)cc5)cc34)CC2)cc1 [Compound #73, methyl 4-(4-((6-(bis(4-chlorophenyl)methyl)quinazolin-4-yl)amino)piperidine-1-carbonyl)benzoate] | –
